The target of test [1] is c-AMP phosphodiesterase (erythrocytes). Kind of test: Inhibition of Cyclic AMP Phosphodiesterase. To be noted: erythrocyte phosphodiesterase extract. In kind it is biochemical. The protocol: The procedure used was that described by Arch, J. R. S. and Newsholme, E. A. in Biochem. J. 158, 603, (1976):
Erythrocytes were obtained from Na-citrate (16 mM; 0.1 ml/ml blood) anticoagulated blood by repeated centrifugation with removal of the buff coat and washing with an isotonic buffer (composition in mM: NaCl 13.7, KCl 4, CaCl2.2 H2 O 1.8, Na2 HPO4.12 H2 O 0.8, NaH2 PO4 0.2, MgSO4.7 H2 O 0.7, Hepes 3.4; pH 7.4).
The phosphodiesterase was extracted by mixing the erythrocytes with 4 volumes of 7 mM phosphate buffer, pH7.4, followed by sonification (3×10 sec; 100 W) and then centrifuging for 30 min at 4200×g.
All supernatants were diluted in the extraction medium and assayed for phosphodiesterase activity within 6 hours of preparation, using the radiochemical procedure described in the above mentioned reference.

The subject of test [2] is PDE Ic (Ca^2 +/calmodulin-stimulated). To be noted: guinea-pig heart; cited from earlier work.
The subject of the next test is PDE III (cGMP-inhibited). The conditions noted are these: guinea-pig heart; cited from earlier work.
The subject of test [3] is PDE IV (Ro 20-1724-inhibited). To be noted: human monocyte; cited from earlier work.
Test [4] relates to PDE Ib (Ca^2 +/calmodulin-stimulated). To be noted: porcine aorta; cited from earlier work.

The term Ki denotes a dissociation constant, usually derived from enzyme kinetics or from competition with a known ligand. Low values mean tighter binding, high ones weaker binding. Usually Km stands for the substrate concentration at which the rate is half of its maximum.

Regarding `COc1ccc(C2=CC(=O)CC2)cc1OC` [Example 1, 1-(3,4-Dimethoxyphenyl)-cyclopent-1,2-ene-3-one], the inhibition constant Ki in test [1] turned out to be 10900 nM.
On to `COc1ccc(C2=CC(=O)CC2)cc1OC1CCCC1` [Example 2, 1-(3-(Cyclopentyloxy-4-methoxy)-phenyl)-cyclopent-1,2-ene-3-one], for which the inhibition constant Ki in test [1] was 1100 nM.
In test [1], `COc1ccc(C2=CC(=O)CCC2)cc1OC1CCCC1` [Example 3] had an inhibition constant (Ki) of 700 nM.
On the same count and under the same terms, as for `COc1ccc(C2=CC(=O)CCC2)cc1OC` [Example 4, 1-(3,4-Dimethoxyphenyl)-cyclohex-1,2-ene-3-one], the figure is 3000 nM.
In the case of `COc1ccc(C2CCCCC2)cc1OC1CCCC1` [Example 5, 1-Methoxy-2-cyclopentyloxy-4-cyclohexyl-benzene], in test [1], affinity was put at a Ki of 2100 nM.
With `COc1ccc(C2CCCCC2)cc1OC` [Example 6, 1,2-Dimethoxy-4-cyclohexyl-benzene], in test [1], the Ki was determined as 14100 nM.
With `Nc1nc2c(ncn2[C@@H]2O[C@@H]3COP(=O)(O)O[C@H]3[C@H]2O)c(=O)[nH]1` [cGMP], the Km in test [2] was 2 µM; in the test on PDE III (cGMP-inhibited), 8 µM; in test [3] it was 38 µM; in test [4], 5 µM.

The record behind these values is patent publication US5362915A, “Phenyl-substituted cycloalkenyl compounds useful as PDE IV inhibitors” (SmithKline Beecham Pharma GmbH, priority 1990, dated 1994).
